Test results published in patent US9796674B2, “Benzyl urea derivatives for activating TGF-beta signaling” (THE BOARD OF TRUSTEES OF THE LELAND STANFORD JUNIOR …, priority 2013, dated 2017).
≈ marks a conversion by molar mass, not a printed value.

Tests used:
[1] = Cytotoxicity in primary rat hepatocytes; format: cell-based; details: rat
Procedure: In Vitro Cytotoxicity: The cytotoxicity of SRI-011381 was determined in primary rat hepatocytes and in VERO cells.
Rat hepatocytes were isolated by collagenase perfusion and allowed to form a monolayer overnight. The test compounds were added to the cells in 5 concentrations up to 250 μM. Cells were incubated with the test article for 20 h and then toxicity determined by the MTT cytotoxicity screen. Toxicity was evaluated against the vehicle control (DMSO) and a positive control, amitriptylin, was included with each experiment.

[2] = PAMPA double sink permeability assay; format: in vitro ADME; details: pH 7.4, 6.2, 5.0, read-out: sum of the permeability coefficients (Pe)
Procedure: Permeability Assays: PAMPA screens, both for absorption from the gut and through blood brain barrier, were used as a first tier screen for this program. SRI-011381 was evaluated in the double sink assay format and the sum of the permeability coefficients at three pH values (7.4, 6.2, 5.0) was calculated (Pe) to be 781×10^−6 cm/s, which is consistent with an orally available compound.
Permeability PAMPA: The PAMPA assay was used to predict oral bioavailability of compounds. The PAMPA determines the permeability of compounds across a biological membrane using a synthetic lipid membrane and detection by UV absorbance. […] The PAMPA-BBB assay was performed, to predict permeability to the blood brain barrier, as an aqueous assay and as a co-solvent assay. In this assay the composition of the lipid membrane included brain-derived lipids, mimicking the BBB membrane.

[3] = test system: APP751Lon,Swe transgenic mice; assay: Efficacy in APP751Lon,Swe transgenic mouse model; format: in vivo; details: for Y-maze working memory (spontaneous alternations): po 3 times per week
Description: Transgenic mouse models over-producing human APP-containing mutations found in families with autosomal dominant AD reproduce important aspects of AD, including amyloid plaques, neurodegeneration, and cognitive deficits. Transgenic mice which overexpress human APP751^V717I, K670M/N671L (aka London and Swedish mutations) in neurons under control of a Thy1.2 promoter, specifically Line 41 generated according to Rockenstein et al., (2001) J. Neurosci. Res. 66: 573-582, incorporated herein by reference in its entirety, develop amyloid pathology, neurodegeneration, and cognitive deficits (Rockenstein et al. 2001). These mice (short APP751^Lon,Swe) have been studied by multiple laboratories (Pickford et al. (2008) J. Clin. Invest. doi:10.1172/JCI33585; Knowles et al., (2009) J. Neuroscience 29: 10627-10637) and have been used as a model for drug development.
Compound SRI-011381 was dissolved in a vehicle containing 15% solutol and 85% water. The formulated compound was administered orally to APP751^Lon,Swe transgenic mice or littermate non-transgenic controls (male, 6.5-7.5 months of age) at 0 (vehicle only), 10, 30 mg/kg of body weight 3 times per week for 10 weeks (n=7-11 mice per group). Behavioral studies started at this point. Oral gavage of the compound continued throughout the course of the studies until the mice were sacrificed 17 weeks after treatment had been initiated (thus mice were treated for roughly 4 months total before they were sacrificed). Plasma samples were collected for future proteomic assays. One hemibrain was fixed in 4% PFA for 48 h and kept in 2% PFA at 4° C. for neuropathologcial analysis. The other hemibrain was snap frozen. Both the serum and frozen brain samples were placed into −80° C. freezer for long-term storage.
To determine the effects of SRI-011381 (381) treatment on AD-like pathology brains from APP751^Lon,Swe transgenic and non-transgenic littermate control mice treated with vehicle, 10 mg/kg, or 30 mg/kg of compound were sectioned into 40 μm free-floating sections with a vibratome. Brain sections were stained with antibodies against Aβ, phosphorylated tau (PHF1), calbindin, microtubule associated protein2 (MAP2), synaptophysin (SY38), NeuN, and Iba1. In addition, hippocampus and neocortex from one hemibrain from APP751^Lon,Swe mice were homogenized with guanidine, and levels of Aβ1-42 and Aƒβ1-x were measured by ELISA.

Solubility = format: physicochemical; details: aqueous buffer; in PBS

With `O=C(NC1CCCCC1)N(Cc1ccccc1)CC1CCNCC1` [SRI-011381, 1-Benzyl-3-cyclohexyl-1-(piperidin-4-ylmethyl)urea] the CC50 at 20 h [1] was > 100 µM, the Papp [2] was 781 ×10⁻⁶ cm/s and the “fear conditioning: context memory” value ([3]; 10 mg/kg) was “significantly improved”. For the same compound, the “rescue of working memory deficit (Y-maze)” value ([3]; 10 mg/kg po 3 times per week, 10 weeks) was > 50%, the “fear conditioning: cued memory to the tone” value ([3]; 10 or 30 mg/kg) was “no significant differences” and the “fear conditioning: learning of the tone response (freezing, tone 4)” value ([3]; 10 or 30 mg/kg) was “completely absent”. The “Aβ immunoreactivity in hippocampus and cortex” value ([3]; 10 or 30 mg/kg, about 4 months) was “trend was seen towards lower levels”, the “Aβ levels by ELISA in hippocampus and cortex” value ([3]; 10 or 30 mg/kg, about 4 months) was “non-significant trends towards lower Aβ levels” and the “increase in expression of PHF1” value ([3]; 10 or 30 mg/kg, about 4 months) was “almost completely absent”. The “level of Iba1” value ([3]; 10 or 30 mg/kg, about 4 months) was “did not significantly change”, the “levels of calbindin, synaptophysin, MAP-2 and NeuN” value ([3]; 10 or 30 mg/kg, about 4 months) was “significantly higher levels of these neuronal markers” and the “fear conditioning: cued memory to the tone” value ([3]; 10 or 30 mg/kg, listed as 381) was “No freezing difference”. For the same compound, the “fear conditioning: learning of the tone response (freezing, tone 4)” value ([3]; 10 or 30 mg/kg, listed as 381) was “significant increase in freezing”, the “rescue of contextual memory deficit” value ([3]; oral) was “greater than 50%” and the “Y-maze working memory (spontaneous alternations)” value ([3]; 10 weeks) was “not significantly impaired compared with littermate non-transgenic controls”. For the same compound, the “Y-maze working memory (spontaneous alternations)” value ([3]; 10 weeks, listed as 381) was “improved”, the neurodegeneration ([3]; two dose levels, 4-month-period of treatment) was “marked amelioration of neurodegeneration” and the solubility (Solubility) was 5200 µg/mL (≈ 15.8 mM).
